Test results reported in patent US20240109930A1, “TRIAZOLYL-METHYL SUBSTITUTED ALPHA-D-GALACTOPYRANOSIDE DERIVATIVES” (Idorsia Pharmaceuticals Ltd, priority 2021, published 2024).

Columns and labels:
human Gal-1 (hGal-1) = human Gal-1 (hGal-1) (Homo sapiens, UniProt P09382, C131S/C17S/C43S/C61S/C89S); assay: Competitive binding assay: biotinylated hGal-1 binding to microplate-adsorbed asialofetuin (ASF); conditions: IC50 values from several measurements given as geomean
How it was run: (§1)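 Biotinylated hGal-3 or hGal-1 (preferably cysteine-free Cys→Ser mutant), 300–1000 ng/mL, competes with compound for ASF-coated wells for 3 h at 4 °C. Bound lectin detected with streptavidin-peroxidase (80 ng/mL, 1 h, 4 °C) and ABTS by absorbance; IC50 reported as geomean of several runs.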

human Gal-3 (hGal-3) = human Gal-3 (hGal-3) (Homo sapiens (Human), UniProt P17931); assay: Competitive binding assay: biotinylated hGal-3 binding to microplate-adsorbed asialofetuin (ASF); conditions: IC50 values from several measurements given as geomean
How it was run: as §1

Sequence of human Gal-3 (hGal-3) (P17931 whole entry): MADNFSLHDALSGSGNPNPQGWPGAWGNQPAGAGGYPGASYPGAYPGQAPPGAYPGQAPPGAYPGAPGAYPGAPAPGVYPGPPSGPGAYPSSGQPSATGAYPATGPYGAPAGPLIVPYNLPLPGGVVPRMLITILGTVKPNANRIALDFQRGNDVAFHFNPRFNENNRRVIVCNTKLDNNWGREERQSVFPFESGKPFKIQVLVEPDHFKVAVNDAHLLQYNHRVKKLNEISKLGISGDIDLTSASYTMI

Compound | IC50 (human Gal-1 (hGal-1)) [nM] | IC50 (human Gal-3 (hGal-3)) [nM]
CO[C@@H]1[C@@H](n2cc(-c3ccc(Cl)c(F)c3F)nn2)[C@@H](O)[C@@H](CO)O[C@@H]1Cc1cn([C@@H]2CCC[C@@H]2F)nn1 [Example 2.1.79.A, (2R,3R,4S,5R,6R)-4-(4-(4-chloro-2,3-difluorophenyl)-1H-1,2,3-triazol-1-yl)-6-((1-((1R,2S)-2-fluorocyclopentyl)-1H-1,2,3-triazol-4-yl)methyl)-2-(hydroxymethyl)-5-methoxytetrahydro-2H-pyran-3-ol] | 1510 | 20
CO[C@@H]1[C@@H](n2cc(-c3ccc(Cl)c(F)c3F)nn2)[C@@H](O)[C@@H](CO)O[C@@H]1Cc1cn([C@@H]2CCC[C@H]2F)nn1 (relative stereo) [Example 2.1.79.CD, (2R,3R,4S,5R,6R)-4-(4-(4-chloro-2,3-difluorophenyl)-1H-1,2,3-triazol-1-yl)-6-((1-((1R*,2R*)-2-fluorocyclopentyl)-1H-1,2,3-triazol-4-yl)methyl)-2-(hydroxymethyl)-5-methoxytetrahydro-2H-pyran-3-ol] | 3480 | 60
CO[C@@H]1[C@@H](n2cc(-c3ccc(Br)c(F)c3F)nn2)[C@@H](O)[C@@H](CO)O[C@@H]1Cc1cn(C23CC(C2)C3)nn1 [Ex 4.1.12.] | 3920 | 40
CO[C@@H]1[C@@H](n2cc(-c3ccc(Br)c(F)c3F)nn2)[C@@H](O)[C@@H](CO)O[C@@H]1Cc1cn(C23CC(C)(C2)C3)nn1 [Ex 4.1.14., (2R,3R,4S,5R,6R)-4-(4-(4-bromo-2,3-difluorophenyl)-1H-1,2,3-triazol-1-yl)-2-(hydroxymethyl)-5-methoxy-6-((1-(3-methylbicyclo[1.1.1]pentan-1-yl)-1H-1,2,3-triazol-4-yl)methyl)tetrahydro-2H-pyran-3-ol] | 1360 | 60
CO[C@@H]1[C@@H](n2cc(-c3ccc(Cl)c(F)c3F)nn2)[C@@H](O)[C@@H](CO)O[C@@H]1Cn1cc(C2(C)CC2)nn1 [Ex 2.2.23.] | 1710 | 60
CO[C@@H]1[C@@H](n2cc(-c3ccc(Br)c(F)c3F)nn2)[C@@H](O)[C@@H](CO)O[C@@H]1Cc1cn(C2(C)COC2)nn1 [Ex 4.1.6.] | 1460 | 40
CO[C@@H]1[C@@H](n2cc(-c3ccc(Cl)c(F)c3F)nn2)[C@@H](O)[C@@H](CO)O[C@@H]1Cn1cc(C2(O)CC2)nn1 [Ex 2.2.36.] | 3160 | 90
CO[C@@H]1[C@@H](n2cc(-c3ccc(F)c(F)c3F)nn2)[C@@H](O)[C@@H](CO)O[C@@H]1Cc1cn(C23CC(OC)(C2)C3)nn1 [Ex 3.1.29.] | 760 | 30
CO[C@@H]1[C@@H](n2cc(-c3ccc(Cl)c(F)c3F)nn2)[C@@H](O)[C@@H](CO)O[C@@H]1Cc1cn(C2(C(F)(F)F)COC2)nn1 [Ex 2.1.58., (2R,3R,4S,5R,6R)-4-(4-(4-chloro-2,3-difluorophenyl)-1H-1,2,3-triazol-1-yl)-2-(hydroxymethyl)-5-methoxy-6-((1-(3-(trifluoromethyl)oxetan-3-yl)-1H-1,2,3-triazol-4-yl)methyl)tetrahydro-2H-pyran-3-ol [1-(1,2,3-tri-deoxy-2-methoxy-3-[4-(4-chloro-2,3-difluorophenyl)-1H-1,2,3-triazol-1-yl]-α-D-galacto-pyranose)-1-(1-(3-trifluoromethyl-3-oxetanyl)-1H-triazol-4-yl)-methane]] | 470 | 20

Second part, the compound after the results:

IC50 (human Gal-1 (hGal-1)) [nM] | IC50 (human Gal-3 (hGal-3)) [nM] | Compound
2340 | 30 | CO[C@@H]1[C@@H](n2cc(-c3ccc(Cl)c(F)c3F)nn2)[C@@H](O)[C@@H](CO)O[C@@H]1Cc1cn([C@H]2CCCC2(F)F)nn1 [Example 2.1.64.B, (2R,3R,4S,5R,6R)-4-(4-(4-chloro-2,3-difluorophenyl)-1H-1,2,3-triazol-1-yl)-6-((1-((S)-2,2-difluorocyclopentyl)-1H-1,2,3-triazol-4-yl)methyl)-2-(hydroxymethyl)-5-methoxytetrahydro-2H-pyran-3-ol]
1030 | 60 | CO[C@@H]1[C@@H](n2cc(-c3ccc(Br)c(F)c3F)nn2)[C@@H](O)[C@@H](CO)O[C@@H]1Cc1cn(C2(CF)CCC2)nn1 [Ex 4.1.40., (2R,3R,4S,5R,6R)-4-(4-(4-bromo-2,3-difluorophenyl)-1H-1,2,3-triazol-1-yl)-6-((1-(1-(fluoromethyl)cyclobutyl)-1H-1,2,3-triazol-4-yl)methyl)-2-(hydroxymethyl)-5-methoxytetrahydro-2H-pyran-3-ol]
1630 | 50 | CO[C@@H]1[C@@H](n2cc(-c3ccc(Cl)c(F)c3F)nn2)[C@@H](O)[C@@H](CO)O[C@@H]1Cc1cn(C2(CF)CCC2)nn1 [Ex 2.1.40.]
680 | 50 | CO[C@@H]1[C@@H](n2cc(-c3ccc(Cl)c(F)c3F)nn2)[C@@H](O)[C@@H](CO)O[C@@H]1Cc1cn(C2(CCO)COC2)nn1 [Ex 2.1.22.]
1200 | 60 | CO[C@@H]1[C@@H](n2cc(-c3ccc(Cl)c(F)c3F)nn2)[C@@H](O)[C@@H](CO)O[C@@H]1Cc1cn(C2COCCC2(F)F)nn1 (single isomer, unassigned) [Example 2.1.73.B]
670 | 50 | CO[C@@H]1[C@@H](n2cc(-c3ccc(Cl)c(F)c3F)nn2)[C@@H](O)[C@@H](CO)O[C@@H]1Cc1cn(C2(C(F)(F)F)CCC(F)(F)CC2)nn1 [Ex 2.1.71., (2R,3R,4S,5R,6R)-4-(4-(4-chloro-2,3-difluorophenyl)-1H-1,2,3-triazol-1-yl)-6-((1-(4,4-difluoro-1-(trifluoromethyl)cyclohexyl)-1H-1,2,3-triazol-4-yl)methyl)-2-(hydroxymethyl)-5-methoxytetrahydro-2H-pyran-3-ol]
1060 | 20 | CO[C@@H]1[C@@H](n2cc(-c3ccc(C)c(F)c3F)nn2)[C@@H](O)[C@@H](CO)O[C@@H]1Cc1cn(C2(C)CC2)nn1 [Ex 1.1.23.]
870 | 20 | CO[C@@H]1[C@@H](n2cc(-c3ccc(Cl)c(F)c3F)nn2)[C@@H](O)[C@@H](CO)O[C@@H]1Cc1cn(C2CCOCC2(F)F)nn1 (single isomer, unassigned) [Example 2.1.89.B]
1030 | 40 | CO[C@@H]1[C@@H](n2cc(-c3ccc(Cl)c(F)c3F)nn2)[C@@H](O)[C@@H](CO)O[C@@H]1Cc1cn(C2(C(F)(F)F)CCCC2)nn1 [Ex 2.1.67.]
2370 | 50 | CO[C@@H]1[C@@H](n2cc(-c3ccc(Cl)c(F)c3F)nn2)[C@@H](O)[C@@H](CO)O[C@@H]1Cc1cn(C23COC(C)(C2)C3)nn1 [Ex 2.1.59., (2R,3R,4S,5R,6R)-4-(4-(4-chloro-2,3-difluorophenyl)-1H-1,2,3-triazol-1-yl)-2-(hydroxymethyl)-5-methoxy-6-((1-(1-methyl-2-oxabicyclo[2.1.1]hexan-4-yl)-1H-1,2,3-triazol-4-yl)methyl)tetrahydro-2H-pyran-3-ol]
240 | 20 | CO[C@@H]1[C@@H](n2cc(-c3ccc(Cl)c(F)c3F)nn2)[C@@H](O)[C@@H](CO)O[C@@H]1Cc1cn(C2(C(F)F)CCOC2)nn1 (single isomer, unassigned) [Example 2.1.78.B]
